In experiment [1] the target is T1, Mitogen-activated protein kinase kinase kinase 3 (Homo sapiens) (UniProt Q99759).
T1 sequence (whole entry): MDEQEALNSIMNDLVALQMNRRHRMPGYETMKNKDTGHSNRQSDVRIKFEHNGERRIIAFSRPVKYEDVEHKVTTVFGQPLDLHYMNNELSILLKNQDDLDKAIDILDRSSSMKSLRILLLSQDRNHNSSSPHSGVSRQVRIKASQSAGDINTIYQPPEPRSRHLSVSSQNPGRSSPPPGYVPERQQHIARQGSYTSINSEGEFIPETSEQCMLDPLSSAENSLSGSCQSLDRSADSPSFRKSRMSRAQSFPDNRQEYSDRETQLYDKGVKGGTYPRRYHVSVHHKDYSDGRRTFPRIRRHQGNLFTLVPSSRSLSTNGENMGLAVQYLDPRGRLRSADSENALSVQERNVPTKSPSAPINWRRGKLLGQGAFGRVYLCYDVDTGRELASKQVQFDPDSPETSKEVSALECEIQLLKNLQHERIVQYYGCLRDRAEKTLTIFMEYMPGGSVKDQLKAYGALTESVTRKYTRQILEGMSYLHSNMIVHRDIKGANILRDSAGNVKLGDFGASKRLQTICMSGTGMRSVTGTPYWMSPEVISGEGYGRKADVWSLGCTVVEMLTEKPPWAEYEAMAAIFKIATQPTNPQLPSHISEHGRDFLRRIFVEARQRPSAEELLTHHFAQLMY
The experiment in a line: Selectivity interaction (KinomeScan (DiscoverX)) EUB0000595a MAP3K3. The conditions noted are these: at 10 µM.

In experiment [2] the target is Leukocyte tyrosine kinase receptor (Homo sapiens, UniProt P29376). The experiment in a line: Selectivity interaction (KinomeScan (DiscoverX)) EUB0000666a LTK. The conditions noted are these: at 10 µM.
Leukocyte tyrosine kinase receptor, sequence (P29376 whole entry): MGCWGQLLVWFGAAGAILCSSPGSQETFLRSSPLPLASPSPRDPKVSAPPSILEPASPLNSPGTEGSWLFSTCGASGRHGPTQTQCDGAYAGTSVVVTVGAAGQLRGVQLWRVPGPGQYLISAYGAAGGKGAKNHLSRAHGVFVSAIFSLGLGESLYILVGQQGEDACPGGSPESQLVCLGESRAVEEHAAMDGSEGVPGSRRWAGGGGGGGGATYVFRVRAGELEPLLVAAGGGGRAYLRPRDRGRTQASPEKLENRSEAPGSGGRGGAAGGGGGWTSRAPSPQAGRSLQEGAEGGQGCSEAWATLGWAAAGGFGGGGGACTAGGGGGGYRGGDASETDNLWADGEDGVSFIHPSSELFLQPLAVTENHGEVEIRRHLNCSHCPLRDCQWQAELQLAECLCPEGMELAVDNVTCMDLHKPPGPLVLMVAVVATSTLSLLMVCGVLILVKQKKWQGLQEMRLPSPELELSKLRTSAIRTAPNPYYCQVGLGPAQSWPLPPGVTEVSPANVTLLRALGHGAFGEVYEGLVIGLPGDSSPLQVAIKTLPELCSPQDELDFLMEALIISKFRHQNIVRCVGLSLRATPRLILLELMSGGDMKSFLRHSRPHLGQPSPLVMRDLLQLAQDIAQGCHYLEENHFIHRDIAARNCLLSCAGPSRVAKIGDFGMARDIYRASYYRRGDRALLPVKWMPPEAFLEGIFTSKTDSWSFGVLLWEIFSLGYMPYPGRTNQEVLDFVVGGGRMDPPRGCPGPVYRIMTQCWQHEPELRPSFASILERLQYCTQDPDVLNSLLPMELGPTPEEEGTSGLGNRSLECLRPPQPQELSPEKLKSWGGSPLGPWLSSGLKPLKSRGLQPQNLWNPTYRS
Experiment [3] deals with T2, Activin receptor type-1 (Homo sapiens) (UniProt Q04771).
T2 sequence (whole entry): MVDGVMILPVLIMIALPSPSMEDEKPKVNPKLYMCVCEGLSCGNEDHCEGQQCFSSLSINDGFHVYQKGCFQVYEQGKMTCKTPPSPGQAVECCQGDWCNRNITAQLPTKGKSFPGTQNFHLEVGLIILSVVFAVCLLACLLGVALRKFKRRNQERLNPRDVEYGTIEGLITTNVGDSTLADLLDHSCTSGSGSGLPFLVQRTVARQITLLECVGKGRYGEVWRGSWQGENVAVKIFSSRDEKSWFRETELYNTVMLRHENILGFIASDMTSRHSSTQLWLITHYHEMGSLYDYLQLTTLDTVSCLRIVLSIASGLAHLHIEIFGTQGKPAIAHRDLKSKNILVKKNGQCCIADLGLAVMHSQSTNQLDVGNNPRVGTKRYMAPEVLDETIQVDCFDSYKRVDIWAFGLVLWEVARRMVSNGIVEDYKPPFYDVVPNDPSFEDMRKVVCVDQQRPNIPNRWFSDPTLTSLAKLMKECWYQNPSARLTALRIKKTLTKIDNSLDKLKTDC
The experiment is described as follows: Selectivity interaction (Kinase panel (Invitrogen)) EUB0000639a ACVR1. The conditions noted are these: at 200 nM.

Experiment [4] deals with T3, Rhodopsin kinase GRK7 (Homo sapiens) (UniProt Q8WTQ7).
T3 sequence (whole entry): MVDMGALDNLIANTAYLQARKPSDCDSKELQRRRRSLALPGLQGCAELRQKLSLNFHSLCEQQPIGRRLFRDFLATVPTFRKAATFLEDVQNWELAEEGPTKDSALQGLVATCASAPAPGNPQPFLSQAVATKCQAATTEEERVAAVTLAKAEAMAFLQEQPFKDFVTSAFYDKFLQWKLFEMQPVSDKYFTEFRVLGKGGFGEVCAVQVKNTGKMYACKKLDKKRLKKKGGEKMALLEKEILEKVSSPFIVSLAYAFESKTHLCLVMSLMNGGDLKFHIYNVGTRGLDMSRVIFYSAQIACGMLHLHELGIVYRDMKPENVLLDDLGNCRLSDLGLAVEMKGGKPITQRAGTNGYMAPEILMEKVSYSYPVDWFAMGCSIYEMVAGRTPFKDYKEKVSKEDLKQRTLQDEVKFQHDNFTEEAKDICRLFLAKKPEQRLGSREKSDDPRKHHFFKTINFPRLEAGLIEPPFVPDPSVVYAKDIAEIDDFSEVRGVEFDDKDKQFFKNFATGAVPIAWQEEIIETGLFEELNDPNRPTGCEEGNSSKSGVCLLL
The experiment is described as follows: Selectivity interaction (Ambit KINOMEscan and KiNATiv profiling in Jurkat cells) EUB0000090b GRK7. The experiment is classed as cell-based. To be noted: at 1 µM.

Experiment [5] addresses Platelet-derived growth factor receptor beta (Homo sapiens, UniProt P09619). The experiment in a line: Selectivity interaction (KinomeScan (DiscoverX)) EUB0001049a PDGFRB. The conditions noted are these: at 1 µM.
Experiment [6] concerns the target Casein kinase II subunit alpha (Homo sapiens, UniProt P68400). The experiment is described as follows: Selectivity interaction (Kinase panel (DSF assay)) EUB0001558a CSNK2A1.
The target in experiment [7] is Ribosomal protein S6 kinase beta-1 (Homo sapiens, UniProt P23443). The experiment is described as follows: Selectivity interaction (Millipore kinase profiler) EUB0000124b RPS6KB1. The conditions noted are these: at 10 µM.
Ribosomal protein S6 kinase beta-1, sequence (P23443 whole entry, looked up): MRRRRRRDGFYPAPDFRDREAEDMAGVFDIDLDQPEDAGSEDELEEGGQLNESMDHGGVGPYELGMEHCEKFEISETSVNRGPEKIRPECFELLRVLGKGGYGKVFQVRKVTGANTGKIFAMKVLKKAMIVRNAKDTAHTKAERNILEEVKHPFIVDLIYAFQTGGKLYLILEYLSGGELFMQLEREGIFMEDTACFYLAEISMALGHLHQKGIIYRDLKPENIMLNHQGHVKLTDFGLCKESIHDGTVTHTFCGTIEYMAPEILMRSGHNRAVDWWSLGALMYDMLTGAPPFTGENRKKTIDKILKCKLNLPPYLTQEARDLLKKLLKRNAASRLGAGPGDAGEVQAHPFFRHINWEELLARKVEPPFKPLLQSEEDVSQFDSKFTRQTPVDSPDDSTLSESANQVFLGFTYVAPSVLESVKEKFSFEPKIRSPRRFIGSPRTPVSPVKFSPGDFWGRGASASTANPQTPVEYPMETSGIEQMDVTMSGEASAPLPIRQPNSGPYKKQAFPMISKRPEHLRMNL
Experiment [8] addresses T4, Peripheral plasma membrane protein CASK (Homo sapiens) (UniProt O14936).
T4 sequence (whole entry): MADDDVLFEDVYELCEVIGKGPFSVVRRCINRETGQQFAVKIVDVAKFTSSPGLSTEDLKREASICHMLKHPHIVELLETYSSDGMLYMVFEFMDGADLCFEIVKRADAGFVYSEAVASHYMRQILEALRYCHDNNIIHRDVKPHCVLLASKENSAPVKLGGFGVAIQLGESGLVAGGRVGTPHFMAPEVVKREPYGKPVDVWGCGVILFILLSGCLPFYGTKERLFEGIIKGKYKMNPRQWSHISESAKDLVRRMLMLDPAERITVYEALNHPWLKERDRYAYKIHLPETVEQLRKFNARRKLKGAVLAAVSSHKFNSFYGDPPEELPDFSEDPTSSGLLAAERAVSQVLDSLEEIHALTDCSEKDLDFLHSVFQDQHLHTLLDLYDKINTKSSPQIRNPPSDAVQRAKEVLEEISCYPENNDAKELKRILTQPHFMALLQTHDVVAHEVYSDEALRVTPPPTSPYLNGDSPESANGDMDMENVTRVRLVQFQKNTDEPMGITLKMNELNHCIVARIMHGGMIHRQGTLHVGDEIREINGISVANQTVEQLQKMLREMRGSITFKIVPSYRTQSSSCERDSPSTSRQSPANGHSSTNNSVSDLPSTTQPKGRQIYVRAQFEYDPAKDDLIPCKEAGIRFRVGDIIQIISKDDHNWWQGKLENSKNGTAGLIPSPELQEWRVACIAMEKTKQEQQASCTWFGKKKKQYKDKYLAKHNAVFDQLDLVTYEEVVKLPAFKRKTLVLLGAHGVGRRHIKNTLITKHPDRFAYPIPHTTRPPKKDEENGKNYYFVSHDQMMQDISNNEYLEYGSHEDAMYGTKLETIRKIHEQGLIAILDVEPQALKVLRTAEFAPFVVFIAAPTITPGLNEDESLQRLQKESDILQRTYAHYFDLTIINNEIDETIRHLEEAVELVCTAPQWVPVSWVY
The experiment is described as follows: Selectivity interaction (KinomeScan (DiscoverX)) EUB0000229b CASK. To be noted: at 10 µM.

Eight compounds from ChEMBL document CHEMBL5465560, “Selectivity Literature for EUbOPEN Chemogenomic Library” (2024) can be followed below.

Platelet-derived growth factor receptor beta, sequence (P09619 whole entry): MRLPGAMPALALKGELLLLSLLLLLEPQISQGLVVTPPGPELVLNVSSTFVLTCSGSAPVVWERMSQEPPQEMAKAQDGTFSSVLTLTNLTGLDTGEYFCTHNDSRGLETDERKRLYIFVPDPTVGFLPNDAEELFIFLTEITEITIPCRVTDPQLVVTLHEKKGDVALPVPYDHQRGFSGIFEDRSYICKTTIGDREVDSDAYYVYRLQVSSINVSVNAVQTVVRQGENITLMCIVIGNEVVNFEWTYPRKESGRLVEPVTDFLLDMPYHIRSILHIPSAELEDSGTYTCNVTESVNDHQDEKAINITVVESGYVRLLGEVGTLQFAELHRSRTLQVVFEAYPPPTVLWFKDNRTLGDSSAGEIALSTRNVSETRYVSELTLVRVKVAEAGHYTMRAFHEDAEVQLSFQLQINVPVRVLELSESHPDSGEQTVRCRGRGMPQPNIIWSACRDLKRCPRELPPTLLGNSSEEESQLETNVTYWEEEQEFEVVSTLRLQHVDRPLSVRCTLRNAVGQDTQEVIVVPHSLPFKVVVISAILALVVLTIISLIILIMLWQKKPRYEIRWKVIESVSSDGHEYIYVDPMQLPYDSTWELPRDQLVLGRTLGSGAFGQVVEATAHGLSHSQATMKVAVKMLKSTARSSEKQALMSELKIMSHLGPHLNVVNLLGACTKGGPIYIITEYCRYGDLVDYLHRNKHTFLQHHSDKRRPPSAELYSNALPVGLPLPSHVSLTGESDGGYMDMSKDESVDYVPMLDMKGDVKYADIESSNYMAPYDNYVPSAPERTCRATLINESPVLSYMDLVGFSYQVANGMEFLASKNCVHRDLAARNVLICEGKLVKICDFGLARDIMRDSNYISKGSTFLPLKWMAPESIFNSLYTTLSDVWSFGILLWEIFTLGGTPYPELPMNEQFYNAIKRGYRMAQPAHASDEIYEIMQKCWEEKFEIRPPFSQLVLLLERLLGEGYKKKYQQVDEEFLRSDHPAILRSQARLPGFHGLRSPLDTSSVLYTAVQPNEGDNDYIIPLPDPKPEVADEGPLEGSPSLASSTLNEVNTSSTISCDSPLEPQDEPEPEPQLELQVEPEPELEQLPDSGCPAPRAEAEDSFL
Casein kinase II subunit alpha, sequence (P68400 whole entry, looked up): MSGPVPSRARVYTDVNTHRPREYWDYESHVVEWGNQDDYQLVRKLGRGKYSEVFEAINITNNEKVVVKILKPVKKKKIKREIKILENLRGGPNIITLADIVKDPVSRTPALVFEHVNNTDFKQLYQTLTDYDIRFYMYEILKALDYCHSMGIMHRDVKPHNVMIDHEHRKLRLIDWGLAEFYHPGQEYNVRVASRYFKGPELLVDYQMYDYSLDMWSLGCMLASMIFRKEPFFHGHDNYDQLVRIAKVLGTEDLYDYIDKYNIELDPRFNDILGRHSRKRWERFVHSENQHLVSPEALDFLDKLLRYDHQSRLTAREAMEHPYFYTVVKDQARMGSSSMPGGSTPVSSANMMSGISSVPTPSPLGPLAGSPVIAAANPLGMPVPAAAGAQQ

Turning to `COCC(=O)NC/C=C/c1ccc2ncnc(Nc3ccc(Oc4ccc(C)nc4)c(C)c3)c2c1` [CP-724714], in experiment [1], the % of control turned out to be 100%.

`O=C(NOC[C@H](O)CO)c1ccc(F)c(F)c1Nc1ccc(I)cc1F` displayed a % of control in experiment [2] of 100%.

In experiment [3], `CC[C@@H]1[C@H](F)C(=O)N[C@@H]1COc1nccc2cc(C(N)=O)c(OC)cc12` [ZIMLOVISERTIB] displayed a % of inhibition of 25.7%.

The compound `CN(C)C/C=C/C(=O)Nc1ccc(C(=O)N2CCCC(Nc3ncc(Cl)c(-c4c[nH]c5ccccc45)n3)C2)cc1` (stereo not drawn) gave a % of control in experiment [4] of 70%.

For `COc1cc(Nc2nc(C)cc(-c3cnn4nc(OC)ccc34)n2)cc(C(F)(F)F)c1`, in experiment [5], the % of control stood at 100%.

The compound `CC(C)(O)[C@H](F)CN1Cc2cc(NC(=O)c3cnn4cccnc34)c(N3CCOCC3)cc2C1=O` yielded a dTM in experiment [6] of 0.3 K.

Compound `CC(=O)Nc1cccc(-n2c(=O)n(C3CC3)c(=O)c3c(Nc4ccc(I)cc4F)n(C)c(=O)c(C)c32)c1` yielded a % of control in experiment [7] of 104%.

Turning to `COc1cc(N(C)c2ccnc3ccc(C(F)(F)F)cc23)cc(OC)c1OC`, in experiment [8], the % binding stood at 55%.
